Measurements reported in patent publication US20200375944A1, “LIPOIC ACID CHOLINE ESTER COMPOSITIONS AND METHODS TO GENERATE BIOCOMPATIBLE OPHTHALMIC FORMULATIONS” (ENCORE VISION, INC., priority 2015, published 2020).
Blank lines part the entries; values can stand above or below the molecule they belong to.

Assays:
Solution pH of LACE = assay type: physicochemical
Log P of LACE = assay type: physicochemical
Hygroscopicity of LACE = assay type: physicochemical
[1] = Degradation of LACE formulation in storage (HPLC); assay type: physicochemical
Source text: An issue that has rendered formulation of LACE problematic has been the propensity to destabilize by ring-opening of the dithiolane linkage to form oxidized species that compromise the activity of the molecule.

[2] = Solubility profile of LACE; assay type: physicochemical
[3] = Osmolality of EV06 compositions adjusted with glycerol; assay type: physicochemical
Description: The requisite osmolality range for drug-containing formulations and placebo is 280-320 mOsm/kg. Preferably, all LACE formulations need to be within 290-310 mOsm/Kg.
A series of placebos was prepared. All placebos, and the LACE-containing solutions that were subsequently prepared, contained the following, with varying amounts of Glycerol: • 0.5% (5 mg/g) Alanine • 0.005% (0.05 mg/g) Benzalkonium Chloride • Small amounts of 1 N Sodium Hydroxide, 1 N Hydrochloric Acid, to adjust pH to 4.5 • Water for Injection (added for final weight)
Target for Total Osmolality was 300 mOsm/kg.
Accordingly, a full series of solutions was prepared with slightly altered target osmolalities for the solutions without LACE, and therefore different target glycerol contents. All solutions were prepared using the same Alanine/Benzalkonium Chloride, pH 4.5 stock solution used in the placebos, so that the final composition was consistently: […]

mouse lenses = conditions: ex-vivo; cited from earlier work
human donor lenses = conditions: ex-vivo; cited from earlier work
[4] = Applicant's earlier observations

Solution pH (Solution pH of LACE): 7-7.5
Log P (Log P of LACE): <2
Hygroscopicity (Hygroscopicity of LACE): Highly hygroscopic
Degradation in storage ([1]; room temperature): rapidly degrades into oxidized species
Solubility in acetonitrile ([2]; acetonitrile): >4 mg/mL in acetonitrile
Solubility in water ([2]; water): >50 mg/mL in water
Additional osmolality for every 1% LACE [3, 4]: 44-55 mOsm/kg
Additional osmolality for every 1% LACE, average [3, 4]: 48 mOsm/kg
Effect of LACE on osmolality for every 1% ([3]; from Table 7 series): 57-60 mOsm/kg
SMILES: C[N+](C)(C)CCOC(=O)CCCC[C@@H]1CCSS1 [LACE, Lipoic acid choline ester]
Degradation in storage ([1]; refrigerated temperatures): rapid oxidation occurs in storage as early as 1 week

SMILES: O=C(O)CCCC[C@@H]1CCSS1 (racemic) [lipoic acid]
Lens softening (mouse lenses): lens softening can be induced pharmacologically

SMILES: O[C@H](CS)[C@H](O)CS (racemic) [dithiothreitol (DTT), dithiothreitol]
Lens softening (human donor lenses): lens softening can be induced pharmacologically
